Key:
[1] = at 37° C.; cited from earlier work
[2] = Oral administration of drug compositions to rats, blood (plasma) drug concentration by HPLC and AUC; assay type: in vivo, wistar rats; conditions: average of five rats
Method: As test animals, 9-week-old male clean wistar rats (five rats for each of drug compositions A to F) were used. […] After the administration, blood was collected from the neck vein of each clean wistar rat at predetermined time intervals and was centrifuged (10000 rpm, 5 min) to obtain plasma. Four hundred microliters of methanol was added to 100 μL of the obtained plasma, and the mixture was mixed for 1 minute with a vortex mixer and was centrifuged (10000 rpm, 5 min). […] One hundred microliters of ethanol was added to the resulting dried substance, and the blood drug concentration was measured using a UV detector (JASCO PU-970) of HPLC (JASCO PU-980). […] Based on the thus-measured blood drug concentrations of the drug compositions, concentration changes with passage of time and areas under blood drug concentration-time curves (AUC) were studied. […] Note that the values of AUC and blood drug concentration in Table 1 and FIGS. 1 to 6 are averages in the five clean wistar rats administered with each of the drug compositions A to F, and “SE” means standard error.

[3] = cited from earlier work

| AUC (area under flurbiprofen plasma concentration-time curve) ([2]; flurbiprofen (FP), dose 2 mg/kg) [ng·h/mL] | AUC (area under probucol plasma concentration-time curve) ([2]; probucol (PRO), dose 200 mg/kg) [ng·h/mL] | Compound | solubility in neutral water [1] | bioavailability to human [3] |
| --- | --- | --- | --- | --- |
| 22060 |  | CC(C(=O)O)c1ccc(-c2ccccc2)c(F)c1 (centres unmarked) [flurbiprofen] | 25 μg/mL water |  |
|  | 4940 | CC(C)(Sc1cc(C(C)(C)C)c(O)c(C(C)(C)C)c1)Sc1cc(C(C)(C)C)c(O)c(C(C)(C)C)c1 [probucol] | 3 to 5 ng/mL water | about 5% |
